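All cell lines were grown in 96-well plates and treated with compound for 48 hours. GI50 = concentration required for 50% inhibition of growth.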 Activity calls are given as the source filed them. No stated cut-off is given here; in the data, active = GI50 up to about 1.1 µM and inactive = higher. Bounds are passed on as bounds.

Some test systems named below: SF-539; MDA-MB-231; OVCAR-3; PC-3; M14; HCT-15; SW-620; MDA-N; CAKI-1; NCI-H226; OVCAR-4; ACHN; SK-MEL-28; HOP-92; KM12; SR; HOP-62; Malme-3M; IGROV-1; NCI-H522.
Assay in all cases: inhibition of tumour cell growth, NCI panel, 48 h

With `O=C1OCCC[C@H]2O[C@@H](COCc3ccccc3)C[C@@H]12`, the GI50 was > 100 µM (inactive) with SF-539; > 100 µM (inactive) in the assay with MDA-MB-231; > 100 µM (inactive) with OVCAR-3; > 100 µM (inactive) with PC-3; > 100 µM (inactive) in the assay on M14; more than 100 µM with HCT-15. Besides, the GI50 in the assay with SW-620, with MDA-N, in the assay on CAKI-1, in the assay with NCI-H226, in the assay with OVCAR-4 and with ACHN was > 100 µM (inactive) in each case. Also, the GI50 in the assay on SK-MEL-28, with HOP-92, with KM12, in the assay with SR and in the assay on HOP-62 was > 100 µM (inactive) throughout.
For the molecule `CC1=CC[C@@H]2[C@@H](CC[C@@]2(C)O)C(C)(C)[C@H]1CC[C@@H]1[C@@]2(C)CC[C@@H](O)C(C)(C)O[C@@H]2CC[C@]1(C)O`, the GI50 was 19.6 µM (inactive) in the assay with SF-539; 17.5 µM (inactive) with MDA-MB-231; 42.8 µM (inactive) with OVCAR-3; 40.6 µM (inactive) with PC-3; 22.5 µM (inactive) in the assay with M14; 18.2 µM with HCT-15. The GI50 with SW-620 is 31.8 µM (inactive); in the assay on MDA-N, 22.5 µM (inactive); in the assay with CAKI-1 it was 20 µM (inactive); with OVCAR-4, 37.2 µM (inactive); with ACHN, 23.2 µM (inactive); with SK-MEL-28, 16.8 µM (inactive). Further, the values for the GI50 in the assay on HOP-92, in the assay on SR and in the assay with HOP-62 were 12.5 µM (inactive), 14.9 µM (inactive) and 23.2 µM (inactive), respectively.
For `CO[C@]12CC(=O)C3(C(C[C@H]4CC5CC[C@H]6C[C@@H](OC(C)=O)CC[C@]6(OC(C)=O)C5C[C@@]43C)C1)C1C[C@H]3[C@@H]4CC[C@H]5C[C@@H](OC(C)=O)CC[C@]5(OC(C)=O)[C@H]4CC[C@]3(C)C12` (stereo not given in full), the GI50 with SF-539 was > 100 µM (inactive); with MDA-MB-231, > 100 µM (inactive); with OVCAR-3 it was > 100 µM (inactive); with PC-3, 50.8 µM (inactive); with M14 it was > 100 µM (inactive); in the assay with Malme-3M it was > 100 µM (inactive). For the same molecule, the GI50 in the assay with HCT-15 is 90.2 µM; in the assay on SW-620 it was > 100 µM (inactive); with MDA-N, 98.2 µM (inactive); with CAKI-1 it was > 100 µM (inactive); with OVCAR-4 it was 17.1 µM (inactive); in the assay with IGROV-1 it was > 100 µM (inactive). Moreover, the GI50 in the assay on ACHN was > 100 µM (inactive); with SK-MEL-28 it was > 100 µM (inactive); in the assay with HOP-92, > 100 µM (inactive); with KM12, 46.8 µM (inactive); with SR, > 100 µM (inactive); with HOP-62 it was > 100 µM (inactive).
For the molecule `CC1CC(NN(C)C)C2(C(N)=O)C(N)=NC(=O)C12C#N` (stereo not given), the GI50 in the assay with SF-539, in the assay on MDA-MB-231, in the assay with PC-3, in the assay on NCI-H522, with M14 and in the assay with Malme-3M was > 100 µM (inactive) each time. Moreover, the GI50 was more than 100 µM in the assay on HCT-15; > 100 µM (inactive) in the assay with SW-620; > 100 µM (inactive) in the assay on MDA-N; > 100 µM (inactive) in the assay with CAKI-1; > 100 µM (inactive) with NCI-H226; > 100 µM (inactive) in the assay on IGROV-1. For the same molecule, the GI50 with ACHN, in the assay on SK-MEL-28, in the assay with HOP-92, with KM12, in the assay on SR and in the assay with HOP-62 was > 100 µM (inactive) each time.
In the case of `CC(C)(C)OC(=O)n1c(-c2ccccc2F)cc(=O)c2cc3c(cc21)OCO3`, the GI50 with SF-539 was 0.0736 µM (active); in the assay on MDA-MB-231 it was 3.68 µM (inactive); in the assay on OVCAR-3, 0.03 µM (active); in the assay with PC-3 it was 0.0391 µM (active); with NCI-H522 it was 0.0267 µM (active); in the assay with M14, 1.4 µM (inactive). Moreover, the GI50 with Malme-3M is 0.0526 µM (active); in the assay on HCT-15, 0.0505 µM; with SW-620 it was 0.0596 µM (active); with MDA-N, < 0.01 µM (active); with NCI-H226 it was 0.0791 µM (active); in the assay on ACHN it was 0.186 µM (active). Moreover, the GI50 in the assay on SK-MEL-28 is > 100 µM (inactive); in the assay on HOP-92, 7.24 µM (inactive); with KM12 it was 0.028 µM (active); with SR, 0.0327 µM (active); in the assay on HOP-62, 0.0863 µM (active).
For `C[C@@H](c1ccccc1)n1c(N)c(C#N)c2ccc([N+](=O)[O-])cc2c1=O`, the GI50 in the assay on MDA-MB-231 was 14.9 µM (inactive); in the assay with PC-3, > 100 µM (inactive); with HCT-15 it was 12.9 µM; with SW-620 it was 19.1 µM (inactive); in the assay with MDA-N, 23.1 µM (inactive); with CAKI-1, 15.1 µM (inactive). Also, the GI50 with NCI-H226 was 1.68 µM (inactive); in the assay on OVCAR-4, 14.2 µM (inactive); in the assay on ACHN, 14.9 µM (inactive); in the assay with SK-MEL-28, 15 µM (inactive); in the assay on HOP-92, 7.13 µM (inactive); in the assay with KM12 it was 16.7 µM (inactive). The GI50 with SR is 2.69 µM (inactive).
Turning to `Cc1ccc(NC(S)=Nc2c(C)n(C)n(-c3ccccc3)c2=O)cc1`, the GI50 in the assay on SF-539, in the assay with MDA-MB-231, in the assay on OVCAR-3, with PC-3, in the assay on NCI-H522 and in the assay on M14 was > 100 µM (inactive) in each case. The GI50 in the assay on Malme-3M is > 100 µM (inactive); with HCT-15, more than 100 µM; in the assay on SW-620, > 100 µM (inactive); with MDA-N, > 100 µM (inactive); with CAKI-1, > 100 µM (inactive); in the assay on NCI-H226 it was > 100 µM (inactive). Moreover, the GI50 in the assay on IGROV-1, in the assay with ACHN, in the assay with SK-MEL-28, in the assay on HOP-92, in the assay with KM12 and with SR was > 100 µM (inactive) each time. In the assay with HOP-62, the GI50 is > 100 µM (inactive).
As for `COc1ccccc1C(O)[C@@H]1C[C@@H]2[C@H]3CC[C@@](C)([C@@H]2O1)C3(C)C` (stereo not given in full), the GI50 is 6.53 µM (inactive) with SF-539; 17.3 µM (inactive) in the assay on MDA-MB-231; 17.1 µM (inactive) with OVCAR-3; 20.7 µM (inactive) with PC-3; 17.4 µM (inactive) with NCI-H522; 21.4 µM (inactive) with M14. Further, the GI50 in the assay with Malme-3M is 15 µM (inactive); in the assay on HCT-15, 20.7 µM; in the assay on SW-620, 16.1 µM (inactive); with MDA-N, 16.7 µM (inactive); in the assay on CAKI-1, 23.8 µM (inactive); with IGROV-1, 15.9 µM (inactive). Also, the GI50 in the assay with ACHN was 19.1 µM (inactive); in the assay on SK-MEL-28, 17.1 µM (inactive); with HOP-92, 15.8 µM (inactive); with KM12, 20.8 µM (inactive); in the assay on SR, 20.6 µM (inactive); in the assay on HOP-62, 18.7 µM (inactive).

(Values after ChEMBL document CHEMBL1201862, “PubChem BioAssay data set” (2004).)
